In publication PMC9433906, “Evaluation of the biotechnological potential of peptide Cupiennin 1a and analogs” (Frontiers in Microbiology, 2022):
In brackets after ≈: the same amount, converted by molar mass. Where a SMILES comes first, the peptide text is derived from it.

How the values were obtained:
[1] = system: methicillin-resistant S. aureus (MRSA 3730592); type: cell-based, Staphylococcus aureus; conditions: Methicillin-Resistant S. aureus—MRSA clinical isolate 3730592; 5×10^5 CFU.ml^−1, Mueller-Hinton Broth, 37°C, 24 h, OD 595 nm, biological triplicates
Procedure: (§1) Susceptibility tests were performed using clinical isolates of Klebsiella pneumoniae carbapenemase (KPC 1410503) and methicillin-resistant S. aureus (MRSA 3730592). Tests were also performed with ATCC (American Type Culture Collection) isolates of K. pneumoniae (ATCC 13883) and S. aureus (ATCC 25923).
(§2) Two multidrug-resistant clinical isolates and two ATCC isolates were chosen to perform microbial susceptibility testing as models for studies with bacteria susceptible to antimicrobials found in the Gram-Positive and Gram-Negative groups of bacteria.
(§3) The broth microdilution method was performed according to the Clinical and Laboratory Standards Institute (CLSI) M07-A10 protocol to determine the Minimum Inhibitory Concentration (MIC; [Clinical Laboratory Standards Institute, 2015]). The assay was performed on 96-well microplates (TPP, United States), containing 5×10^5 CFU.ml^−1 of each tested bacterium per well and different peptide micromolar concentrations (Table 1) in a final volume of 100 μl of Mueller-Hinton Broth (MH). Negative control was represented by bacteria incubated in MH medium, while positive control was represented by culture incubated in MH medium with Amikacin. Plates were kept under agitation at 37°C in a BioTek spectrophotometer (PowerWaveTM HT Microplate Reader) with optical density (OD) readings at 595 nm every 30 min for 24 h. Inhibition results were analyzed using GraphPad Prism 8 software by comparing the OD from negative control wells (100%) to those containing peptides. All tests were performed in biological triplicates.

S. aureus (ATCC 25923) = type: cell-based, Staphylococcus aureus; conditions: S. aureus (ATCC25923); 5×10^5 CFU.ml^−1, Mueller-Hinton Broth, 37°C, 24 h, OD 595 nm, biological triplicates
Procedure: as §1, §2, §3

[2] = system: Klebsiella pneumoniae carbapenemase (KPC 1410503); type: cell-based; conditions: K. pneumoniae carbapenemase—KPC clinical isolate 1410503; 5×10^5 CFU.ml^−1, Mueller-Hinton Broth, 37°C, 24 h, OD 595 nm, biological triplicates; NE = MIC value not found
Procedure: as §1, §2, §3

[3] = system: K. pneumoniae (ATCC 13883); type: cell-based, Klebsiella pneumoniae; conditions: K. pneumoniae (ATCC13883); 5×10^5 CFU.ml^−1, Mueller-Hinton Broth, 37°C, 24 h, OD 595 nm, biological triplicates
Procedure: as §1, §2, §3

| Compound | Minimum inhibitory concentration (MIC) [1] [µM] | Minimum inhibitory concentration (MIC) (S. aureus (ATCC 25923)) [µM] | Minimum inhibitory concentration (MIC) [2] [µM] | Minimum inhibitory concentration (MIC) [3] [µM] |
| --- | --- | --- | --- | --- |
| CC(C)C[C@H](NC(=O)[C@H](CCCNC(=N)N)NC(=O)[C@H](CCCCN)NC(=O)[C@H](Cc1ccccc1)NC(=O)[C@H](CC(C)C)NC(=O)[C@H](CCCCN)NC(=O)CNC(=O)[C@H](Cc1ccccc1)NC(=O)CN)C(=O)N[C@@H](C)C(=O)N[C@@H](CCCCN)C(=O)N[C@@H](C)C(=O)N[C@H](C(=O)N[C@@H](C)C(=O)N[C@@H](CCCCN)C(=O)N[C@@H](C)C(=O)N[C@H](C(=O)N[C@@H](C)C(N)=O)C(C)C)C(C)C [Peptide R10b] (H-GFGKLFKRLAKAVAKAVA-NH2) | 8.53 (≈ 16 µg/mL) | 8.53 (≈ 16 µg/mL) | 17.07 (≈ 32 µg/mL) | 17.07 (≈ 32 µg/mL) |
| CC(C)C[C@H](NC(=O)[C@H](C)NC(=O)CNC(=O)[C@H](Cc1ccccc1)NC(=O)CN)C(=O)N[C@@H](Cc1ccccc1)C(=O)N[C@@H](CCCCN)C(=O)N[C@@H](CCCNC(=N)N)C(=O)N[C@@H](CC(C)C)C(=O)N[C@@H](C)C(=O)N[C@@H](CCCCN)C(=O)N[C@@H](C)C(=O)N[C@H](C(=O)N[C@@H](C)C(=O)N[C@@H](CCCCN)C(=O)N[C@@H](C)C(=O)N[C@H](C(=O)N[C@@H](C)C(N)=O)C(C)C)C(C)C [Peptide R8b] (H-GFGALFKRLAKAVAKAVA-NH2) | 17.60 (≈ 32 µg/mL) | 17.60 (≈ 32 µg/mL) | 35.21 (≈ 64 µg/mL) | 17.60 (≈ 32 µg/mL) |
| CC(C)C[C@H](NC(=O)[C@H](C)NC(=O)CNC(=O)[C@H](Cc1ccccc1)NC(=O)CN)C(=O)N[C@@H](Cc1ccccc1)C(=O)N[C@@H](CCCCN)C(=O)N[C@@H](CCCNC(=N)N)C(=O)N[C@@H](CC(C)C)C(=O)N[C@@H](C)C(=O)N[C@@H](CCCCN)C(=O)N[C@@H](CCCCN)C(=O)N[C@H](C(=O)N[C@@H](C)C(=O)N[C@@H](CCCCN)C(=O)N[C@H](C(=O)N[C@H](C(=O)N[C@@H](C)C(N)=O)C(C)C)[C@@H](C)O)C(C)C [Peptide R3b] (H-GFGALFKRLAKKVAKTVA-NH2) | 67.21 (≈ 128 µg/mL) | 67.21 (≈ 128 µg/mL) |  | 67.21 (≈ 128 µg/mL) |
| CC(C)C[C@H](NC(=O)[C@H](C)NC(=O)CNC(=O)[C@H](Cc1ccccc1)NC(=O)CN)C(=O)N[C@@H](Cc1ccccc1)C(=O)N[C@@H](CCCCN)C(=O)N[C@@H](Cc1ccccc1)C(=O)N[C@@H](CC(C)C)C(=O)N[C@@H](C)C(=O)N[C@@H](CCCCN)C(=O)N[C@@H](C)C(=O)N[C@H](C(=O)N[C@@H](C)C(=O)N[C@@H](CCCCN)C(=O)N[C@@H](C)C(=O)N[C@H](C(=O)N[C@@H](C)C(N)=O)C(C)C)C(C)C [Peptide R6b] (H-GFGALFKFLAKAVAKAVA-NH2) | 17.7 (≈ 32 µg/mL) | 17.7 (≈ 32 µg/mL) |  | 35.4 (≈ 64 µg/mL) |
